PubChem BioAssay (NCI)
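Grown in 96-well plates, cells were treated for 48 hours with each compound at five concentrations. Insufficient inhibition: endpoint recorded as highest concentration tested. GI50 = concentration required for 50% inhibition of growth. TGI is the concentration that stops growth completely.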

How the values were obtained:
Assay in all cases: growth of human tumour cells (NCI), 48 h
[1] = test system: DU-145 prostate
[2] = test system: EKVX NSCLC
[3] = test system: HS 578T breast
[4] = test system: HT29 colon
[5] = test system: MALME-3M melanoma
[6] = test system: MCF7 breast
[7] = test system: OVCAR-5 ovarian
[8] = test system: SF-268 CNS
[9] = test system: SN12C renal
[10] = test system: U251 CNS

| Compound | GI50 [1] [µM] | TGI [1] [µM] | GI50 [2] [µM] | TGI [2] [µM] | GI50 [3] [µM] | TGI [3] [µM] | GI50 [4] [µM] | TGI [4] [µM] | GI50 [5] [µM] | TGI [5] [µM] | GI50 [6] [µM] | TGI [6] [µM] | GI50 [7] [µM] | TGI [7] [µM] | GI50 [8] [µM] | TGI [8] [µM] | GI50 [9] [µM] | TGI [9] [µM] | GI50 [10] [µM] | TGI [10] [µM] |
| --- | --- | --- | --- | --- | --- | --- | --- | --- | --- | --- | --- | --- | --- | --- | --- | --- | --- | --- | --- | --- |
| COc1ccc(CC(=O)c2ccc(O)cc2O)cc1 | > 100 | > 100 | 47.7 | > 100 | > 100 | > 100 | > 100 | > 100 | 45.2 | > 100 | > 100 | > 100 | > 100 | > 100 | 94.5 | > 100 | 93.2 | > 100 | > 100 | > 100 |
| Cc1[nH]c(=O)nc(Nc2ccc(Cl)cc2)c1C(=O)N1CCN(CCO)CC1 | > 100 | > 100 | > 100 | > 100 | 34.2 | > 100 | > 100 | > 100 | 29.9 | > 100 | > 100 | > 100 | > 100 | > 100 | 65 | > 100 | > 100 | > 100 | 37.6 | > 100 |
| O=C1NOC(c2ccc(O)cc2)(c2ccc(O)cc2)c2ccccc21 | > 100 | > 100 | > 100 | > 100 | > 100 | > 100 | > 100 | > 100 | > 100 | > 100 | > 100 | > 100 | > 100 | > 100 | > 100 | > 100 | > 100 | > 100 | > 100 | > 100 |
| C=C1c2ccoc2C[C@H]2[C@H]1CC[C@@]1(O)[C@@](C)(C(=O)OC)CCC[C@]21C | 38.4 | > 100 | 37 | > 100 | 71.9 | > 100 | 17.5 | 81.6 | 22.1 | 56.2 | 9.51 | > 100 | > 100 | > 100 | 22.7 | 73.5 | 16.9 | 34 | 42.4 | > 100 |
| O=C1C(SCCO)=C(SCCO)C(=O)N1c1ccc(-c2ccccc2)cc1 | 3.59 | 8.94 | 9.5 | 23.3 | 17.2 | > 77.9 | 1.02 | 3.5 | 1.61 | 5.31 | 2.17 | 7.74 | 3.61 | 11 | 3.1 | 7.65 | 5.47 | 19.6 | 5.21 | 15.7 |
| COC(=O)Nc1nc2ccc(Oc3cccc(NC(=O)Nc4cc(C(F)(F)F)ccc4F)c3)cc2[nH]1 | > 25 | > 25 | > 19.5 | > 25 | 7.47 | > 25 | 9.11 | > 25 | 6.04 | > 25 | 4.45 | > 7.9 | > 22.5 | > 25 | 18.5 | > 25 | 15.1 | > 25 | 15.4 | > 25 |
| C[C@]12CC[C@@H]3c4ccc(O)cc4CC[C@H]3[C@@H]1Cc1cnc(N)nc12 | 17.8 | 47.3 | 9.47 | 34.9 | 18.4 | 40.7 | 52.9 | > 100 | 15.6 | 29.8 | 18.8 | 47.7 | 28.9 | 76.1 | 13.5 | 38.8 | 20.6 | 44.2 | 17.9 | 41.6 |
| O=C1C(c2cnc3ccccc3n2)=C(O)c2ccccc21 | – | > 100 | – | > 100 | – | > 100 | – | > 100 | – | > 100 | – | > 100 | – | > 100 | – | > 100 | – | > 100 | – | > 100 |
| Cc1cn2c(/C=C3/C(=O)Nc4ccc(O)cc43)c(C)nc2s1 | 6.43 | > 100 | 12.9 | > 100 | 2.68 | 18.2 | 2.47 | > 100 | 0.946 | 19.5 | 1.6 | > 33.6 | 28.3 | > 100 | 3.42 | 56.8 | 3.79 | 41.4 | 3.06 | 35.7 |
